In ChEMBL document CHEMBL3243928, “N-(2,4,5-Trihydroxyphenehtyl)normetazocine, a potential irreversible inhibitor of the narcotic receptor” (J Med Chem, 1977):
Activity calls are given as the source filed them. The calls are words filed in the database; no cut-off is given here.

Experiments:
Mus musculus [1] = test: Inhibition of norepinephrine release in sc dosed mouse heart administered 60 mins before [3H]-norepinephrine challenge; type: functional
Mus musculus [2] = test: Ratio of morphine to compound for analgesic activity in ip dosed mouse; type: functional
[3] = target: Opioid receptor (Rattus norvegicus) (UniProt P33533+P34975+P33535); test: Ratio of morphine to compound for binding affinity to rat brain opiate receptor
Sequence of Opioid receptor (Rattus norvegicus) (P33533 whole entry, looked up): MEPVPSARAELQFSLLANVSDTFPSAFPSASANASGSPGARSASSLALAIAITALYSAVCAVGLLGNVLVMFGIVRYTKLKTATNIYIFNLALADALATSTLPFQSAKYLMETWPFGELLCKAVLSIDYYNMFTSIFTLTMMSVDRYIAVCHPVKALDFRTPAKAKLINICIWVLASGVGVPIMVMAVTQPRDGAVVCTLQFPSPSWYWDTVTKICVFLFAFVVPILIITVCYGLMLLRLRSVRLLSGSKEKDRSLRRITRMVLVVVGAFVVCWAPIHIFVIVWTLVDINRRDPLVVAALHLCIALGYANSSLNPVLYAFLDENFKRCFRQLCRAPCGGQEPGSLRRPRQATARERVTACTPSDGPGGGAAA
Sequence of Opioid receptor (Rattus norvegicus) (P33535 whole entry, looked up): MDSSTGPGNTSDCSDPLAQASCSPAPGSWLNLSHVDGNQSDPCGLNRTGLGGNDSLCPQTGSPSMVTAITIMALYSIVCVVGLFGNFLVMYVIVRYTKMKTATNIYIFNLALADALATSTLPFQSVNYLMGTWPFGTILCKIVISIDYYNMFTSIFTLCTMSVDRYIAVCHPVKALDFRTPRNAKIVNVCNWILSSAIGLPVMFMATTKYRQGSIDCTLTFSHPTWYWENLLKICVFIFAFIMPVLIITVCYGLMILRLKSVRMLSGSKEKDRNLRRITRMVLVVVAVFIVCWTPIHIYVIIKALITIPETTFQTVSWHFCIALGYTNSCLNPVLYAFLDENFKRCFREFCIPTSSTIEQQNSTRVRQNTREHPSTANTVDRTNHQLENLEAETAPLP
Sequence of Opioid receptor (Rattus norvegicus) (P34975 whole entry, looked up): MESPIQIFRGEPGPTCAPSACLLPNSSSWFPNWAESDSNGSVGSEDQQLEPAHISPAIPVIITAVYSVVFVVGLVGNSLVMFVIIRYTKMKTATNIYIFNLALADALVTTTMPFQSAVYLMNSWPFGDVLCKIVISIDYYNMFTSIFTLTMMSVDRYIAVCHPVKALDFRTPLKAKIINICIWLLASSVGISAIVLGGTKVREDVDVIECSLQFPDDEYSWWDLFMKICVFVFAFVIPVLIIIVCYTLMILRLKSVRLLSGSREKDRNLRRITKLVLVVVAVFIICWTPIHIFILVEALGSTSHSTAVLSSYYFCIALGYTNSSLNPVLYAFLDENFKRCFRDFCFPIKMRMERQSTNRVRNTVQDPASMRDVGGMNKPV

Mus musculus [4] = test: Toxicity in mouse at 80 mg/kg, iv; type: organism-based; parameters: dose 80 mg/kg, route intravenous; conditions: in vivo
NG108-15 [5] = test: Antagonist activity at opiate receptor in mouse/rat NG108-15 cells assessed as inhibition of adenylate cyclase activity at 10^-3 M after 3 mins; type: cell-based
Mus musculus [6] = test: Inhibition of norepinephrine release in mouse heart at >150 umol/kg, sc administered 60 mins before [3H]-norepinephrine challenge; type: functional, organism-based
Mus musculus [7] = test: Antinociceptive activity in mouse at 50 mg/kg, sc by hot-plate assay; type: functional, organism-based; parameters: dose 50 mg/kg
NG108-15 [8] = test: Antagonist activity at opiate receptor in mouse/rat NG108-15 cells assessed as inhibition of adenylate cyclase activity at 2 x 10^-4 M after 3 mins; type: cell-based
Mus musculus [9] = test: Toxicity in mouse at 5 mg/kg, iv; type: organism-based; parameters: dose 5 mg/kg, route intravenous; conditions: in vivo
Mus musculus [10] = test: Toxicity in iv dosed mouse; type: organism-based; conditions: in vivo
NG108-15 [11] = test: Antagonist activity at opiate receptor in mouse/rat NG108-15 cells assessed as inhibition of adenylate cyclase activity at 10^-7 M after 3 mins; type: cell-based
[12] = Mus musculus, sc, read-out: ED50

## CC(N)Cc1ccc(O)cc1 (stereo not drawn) [HYDROXYAMPHETAMINE]
Mus musculus [1]; [12]
  ED50: 13 µmol/kg

## CC1C2Cc3ccc(O)cc3C1(C)CCN2CCc1ccccc1 (stereo not drawn) [PHENAZOCINE]
Mus musculus [2]
  Ratio: 10

## NCCc1cc(O)c(O)cc1O [OXIDOPAMINE]
Mus musculus [1]; [12]
  ED50: 6.8 µmol/kg

## Nc1ccc(CCN2CC[C@]34CCCC[C@H]3[C@H]2Cc2ccc(O)cc24)cc1
[3]
  Ratio: > 10

## CC1C2Cc3ccc(O)cc3C1(C)CCN2CCc1ccc(N)cc1 (stereo not drawn)
Mus musculus [2]
  Ratio: 20

## CC1C2Cc3ccc(O)cc3C1(C)CCN2CCc1cc(O)c(O)cc1O.I (stereo not drawn)
Mus musculus [4]
  Activity: Non-toxic
Mus musculus [1]
  ED50: 0 µmol/kg
NG108-15 [5]
  inhibition: Active
Mus musculus [6]
  inhibition: inactive
Mus musculus [7]
  Activity: Active
NG108-15 [8]
  inhibition: inactive

## CC(N)Cc1cc(O)c(O)cc1O (stereo not drawn)
Mus musculus [1]; [12]
  ED50: 4.2 µmol/kg

## COc1ccc(CCN2CCC3(C)c4cc(O)ccc4CC2C3C)cc1 (stereo not drawn)
Mus musculus [2]
  Ratio: 8

## C[C@H]1C2Cc3ccc(O)cc3C1(C)CCN2 (stereo partly drawn)
Mus musculus [9]
  LD100: 10 mg/kg
Mus musculus [10]
  Activity: Toxic

## CN1CC[C@]23c4c5ccc(O)c4O[C@H]2[C@@H](O)C=C[C@H]3[C@H]1C5
NG108-15 [11]
  inhibition: Active

## CN(C)CCc1ccc(O)cc1 [HORDENINE]
Mus musculus [1]; [12]
  ED50: > 400 µmol/kg

## COC(=O)[C@H]1[C@@H](OC(=O)c2ccccc2)C[C@@H]2CC[C@H]1N2C [COCAINE]
Mus musculus [1]
  ED50: 0 µmol/kg
